Columns and labels:
E. coli = test: Time kill method (ASTM E 2315), log reduction of E. coli; format: cell-based, Escherichia coli (ATCC 112229); conditions: 0.5% ADBAC Quat
Protocol: (§1) • (a) Determination of Time Kill Activity: The activity of antimicrobial compositions was measured by the time kill method [ASTM E 2315 Standard Guide for Assessment of Antimicrobial Activity Using a Time Kill Procedure], whereby the survival of challenged organisms exposed to an antimicrobial test composition is […] as a function of time. In this test, a diluted aliquot of the composition is brought into contact with a known population of test bacteria for a specified time period at a specified temperature. The test composition is neutralized at the end of the time period, which arrests the antimicrobial activity of the composition. The percent or, alternatively, log reduction from the original bacteria population is calculated. In general, the time kill method is known to those skilled in the art. In addition, comparative data on the foam profile of representative systems is shown. • (b) The composition can be tested at any concentration from 0-100%. The choice of which concentration to use is at the discretion of the investigator, and suitable concentrations are readily determined by those skilled in the art. All testing if performed in triplicate, the results are combined, and the average log reduction is reported. • (c) The choice of contact time period also is at the discretion of the investigator. Any contact time period can be chosen. Typical contact times range from 15 second to 5 minutes, with 30 seconds and 1 minute being typical contact times. The contact temperature also can be any temperature, typically room temperature, or about 25 degrees Celsius. • (d) The microbial suspension, or test inoculum, is prepared by growing a microbial culture on any appropriate solid media (e.g., agar). The microbial population then is washed from the agar with sterile physiological saline and the population of the microbial suspension is adjusted to about 10^8 colony forming units per ml (cfu/ml). • (e) The table below lists the test microbial cultures used in the following tests and includes the name of the bacteria, the ATCC (American Type Culture Collection) identification number, and the abbreviation for the name of the organism used hereafter.
(§2) S. aureus is a Gram positive bacteria, whereas, E. coli is a Gram negative bacteria.
(§3) The log reduction is calculated using the formula: Log reduction=log10(numbers control)−log10(test sample survivors). Foam Height Determination

S. aureus = test: Time kill method (ASTM E 2315), log reduction of S. aureus; format: cell-based, S. aureus (ATCC 6538); conditions: 0.5% ADBAC Quat
Protocol: as §1, §2, §3

[1] = quaternized sugar-derived surfactant 1.25% w/w, 1.95% alkyl dimethyl amine oxide, 30 second exposure
[2] = 1.95% w/w foam boosting agent, 1.25% Poly Trimoniumhydroxypropyl Cocoglucosides Chloride, 30 seconds exposure
[3] = 3.0% w/w foam boosting agent, 1.25% Poly Trimoniumhydroxypropyl Cocoglucosides Chloride, 30 seconds exposure
[4] = 4.2% w/w foam boosting agent, 1.25% Poly Trimoniumhydroxypropyl Cocoglucosides Chloride, 30 seconds exposure

Substance	E. coli Log Reduction (E. coli; [1]) [log]	S. aureus Log Reduction (S. aureus; [1]) [log]	other results
Lauridimonium-hydroxypropyl Cocoglucosides Chloride [L8610]	>5.0	>5.0	
Lauridimonium-hydroxypropyl Laurylglucosides Chloride [L1210]	>5.0	>5.0	
Cocoglucosides Hydroxypropyl-trimonium Chloride [TM8610]	>5.0	>5.0	
Laurylglucosides Hydroxypropyl-trimonium Chloride [TM1212]	>5.0	>5.0	
Alkyl Dimethyl Amine Oxide			E. coli Log Reduction (E. coli; [2]): >5.5 log; E. coli Log Reduction (E. coli; [3]): >5.5 log; E. coli Log Reduction (E. coli; [4]): >5.5 log; S. aureus Log Reduction (S. aureus; [2]): >5.5 log; S. aureus Log Reduction (S. aureus; [3]): >5.5 log; S. aureus Log Reduction (S. aureus; [4]): >5.5 log
Stearyldimonium-hydroxypropyl Laurylglucosides Chloride [S1218]	>5.0	>5.0	

From patent US9095134B2, “Antimicrobial compositions containing cationic active ingredients and quaternary sugar derived surfactants” (priority 2010, dated 2015)
